This is an account of results in patent US9908868B2, “Isoindolinone compounds as GPR119 modulators for the treatment of diabetes, obesity, dyslipidemia and related disorders” (SANOFI, priority 2014, dated 2018).

By EC50 is commonly meant the concentration giving half of the maximal effect.

The target of the experiment is T1, human GPR119 (Homo sapiens, UniProt Q8TDV5).
T1 construct: expressed in transfected cells
T1 sequence (Q8TDV5 1-335): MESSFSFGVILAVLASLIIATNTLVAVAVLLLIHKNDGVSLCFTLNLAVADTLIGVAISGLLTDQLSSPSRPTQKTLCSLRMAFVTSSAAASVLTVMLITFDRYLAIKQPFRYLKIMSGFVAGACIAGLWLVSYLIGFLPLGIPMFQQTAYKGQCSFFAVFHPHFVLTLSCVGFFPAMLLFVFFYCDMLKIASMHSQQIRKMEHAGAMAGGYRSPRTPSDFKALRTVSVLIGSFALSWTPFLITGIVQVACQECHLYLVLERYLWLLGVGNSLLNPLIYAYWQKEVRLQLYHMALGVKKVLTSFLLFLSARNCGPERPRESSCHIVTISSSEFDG
As to the kind of experiment: Functional cellular assay measuring GPR119-mediated cAMP release (HTRF) in HEK-293 cells stably expressing recombinant human GPR119. In kind it is cell-based. The conditions noted are these: cAMP response, cell line expressing human GPR119, 30 minutes at room temperature. In short, it runs like this:
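HEK-293 cells stably expressing recombinant human GPR119, suspended at 400000 cells/mL in HBSS/20 mM HEPES/0.1% BSA/2 mM IBMX, exposed to compound for 30 minutes at room temperature. cAMP detected by HTRF (665/620 nm ratio) after 1 h with reagents in lysis buffer. EC50 taken as concentration giving 50% of maximal activation.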
Regarding `C[S+]([O-])CN1Cc2ncc(N3CC[C@@H](Oc4ccc(C(=O)C5CC5)cc4)C3=O)cc2C1=O` (stereo partly drawn) [Example 1-61, 3-[(3R)-3-[4-(cyclopropanecarbonyl)phenoxy]-2-oxo-pyrrolidin-1-yl]-6-(methylsulfinylmethyl)-7H-pyrrolo[3,4-b]pyridin-5-one], the EC50 is 516 nM.

`CS(=O)(=O)CN1Cc2ncc(N3CC[C@@H](Oc4ccc(C(=O)C5CC5)cc4)C3=O)cc2C1=O` [Example 1-62, 3-[(3R)-3-[4-(cyclopropanecarbonyl)phenoxy]-2-oxo-pyrrolidin-1-yl]-6-(methylsulfonylmethyl)-7H-pyrrolo[3,4-b]pyridin-5-one]: the 50% effective concentration (EC50) turned out to be 139 nM.

For the compound `C[S+]([O-])CN1Cc2ncc(N3CC[C@@H](Oc4ccc(OCC(F)(F)F)nc4)C3=O)cc2C1=O` (stereo partly drawn) [Example 1-63, 6-(methylsulfinylmethyl)-3-[(3R)-2-oxo-3-[[6-(2,2,2-trifluoroethoxy)-3-pyridyl]oxy]pyrrolidin-1-yl]-7H-pyrrolo[3,4-b]pyridin-5-one], the EC50 turned out to be 104 nM.

As for `CCOC(=O)CN1Cc2ccc(N3CC[C@@H](Oc4ccc(OCC(F)(F)F)nc4)C3=O)cc2C1=O` [Example 1-64, ethyl 2-[1-oxo-6-[(3R)-2-oxo-3-[[6-(2,2,2-trifluoroethoxy)-3-pyridyl]oxy]pyrrolidin-1-yl]isoindolin-2-yl]acetate], the EC50 came out at 27 nM.

Regarding `COC(=O)CN1Cc2ccc(N3CC[C@@H](Oc4ccc(OCC(F)(F)F)nc4)C3=O)cc2C1=O` [Example 1-65, methyl 2-[1-oxo-6-[(3R)-2-oxo-3-[[6-(2,2,2-trifluoroethoxy)-3-pyridyl]oxy]pyrrolidin-1-yl]isoindolin-2-yl]acetate], the EC50 stood at 52 nM.

As to `CS(=O)(=O)CN1Cc2ncc(N3CC[C@@H](Oc4ccc(Oc5ccc(F)cc5)nc4)C3=O)cc2C1=O` [Example 1-66, 3-[(3R)-3-[[6-(4-fluorophenoxy)-3-pyridyl]oxy]-2-oxo-pyrrolidin-1-yl]-6-(methylsulfonylmethyl)-7H-pyrrolo[3,4-b]pyridin-5-one], the EC50 worked out at 163 nM.

Consider `CS(=O)(=O)CN1Cc2ncc(N3CC[C@@H](Oc4ccc(OCC(F)(F)F)nc4)C3=O)cc2C1=O` [Example 1-67, 6-(methylsulfonylmethyl)-3-[(3R)-2-oxo-3-[[6-(2,2,2-trifluoroethoxy)-3-pyridyl]oxy]pyrrolidin-1-yl]-7H-pyrrolo[3,4-b]pyridin-5-one], for which the EC50 came to 81 nM.

For the compound `C[S@+]([O-])CN1Cc2ncc(N3CC[C@@H](Oc4ccc(OCC(F)(F)F)nc4)C3=O)cc2C1=O` [Example 1-68, 6-((S)-methanesulfinylmethyl)-3-{(R)-2-oxo-3-[6-(2,2,2-trifluoro-ethoxy)-pyridin-3-yloxy]-pyrrolidin-1-yl}-6,7-dihydro-pyrrolo[3,4-b]pyridin-5-one], the EC50 stood at 143 nM.

As to `C[S@@+]([O-])CN1Cc2ncc(N3CC[C@@H](Oc4ccc(OCC(F)(F)F)nc4)C3=O)cc2C1=O` [Example 1-69, 6-((R)-methanesulfinylmethyl)-3-{(R)-2-oxo-3-[6-(2,2,2-trifluoro-ethoxy)-pyridin-3-yloxy]-pyrrolidin-1-yl}-6,7-dihydro-pyrrolo[3,4-b]pyridin-5-one], the EC50 stood at 131 nM.

`CN(C)C(=O)CN1Cc2ccc(N3CC[C@@H](Oc4ccc(OC(F)(F)F)cc4)C3=O)cc2C1=O` [Example 2-01, N,N-dimethyl-2-[1-oxo-6-[(3R)-2-oxo-3-[4-(trifluoromethoxy)phenoxy]pyrrolidin-1-yl]isoindolin-2-yl]acetamide]: the EC50 amounted to 106 nM.

Turning to `CN(C)C(=O)CN1Cc2ccc(N3CC[C@@H](Oc4ccc(CCCC5CC5)nc4)C3=O)cc2C1=O` [Example 2-02, 2-[6-[(3R)-3-[[6-(3-cyclopropylpropyl)-3-pyridyl]oxy]-2-oxo-pyrrolidin-1-yl]-1-oxo-isoindolin-2-yl]-N,N-dimethyl-acetamide], the EC50 is 56 nM.

On to `CN(C)C(=O)CN1Cc2ccc(N3CC[C@@H](Oc4ccc(O[C@H]5C[C@@H]6C[C@@H]6C5)nc4)C3=O)cc2C1=O` [Example 2-03, 2-[6-[(3R)-3-[[6-[[(1S,5R)-3-bicyclo[3.1.0]hexanyl]oxy]-3-pyridyl]oxy]-2-oxo-pyrrolidin-1-yl]-1-oxo-isoindolin-2-yl]-N,N-dimethyl-acetamide], for which the EC50 turned out to be 54 nM.

Take `CN(C)C(=O)CN1Cc2ccc(N3CC[C@@H](Oc4ccc(CCC5CC5)nc4)C3=O)cc2C1=O` [Example 2-04, 2-[6-[(3R)-3-[[6-(2-cyclopropylethyl)-3-pyridyl]oxy]-2-oxo-pyrrolidin-1-yl]-1-oxo-isoindolin-2-yl]-N,N-dimethyl-acetamide]: the EC50 worked out at 156 nM.

Regarding `CN(C)C(=O)CN1Cc2ccc(N3CC[C@@H](Oc4ccc(OCC(F)(F)F)nc4)C3=O)cc2C1=O` [Example 2-05, N,N-dimethyl-2-[1-oxo-6-[(3R)-2-oxo-3-[[6-(2,2,2-trifluoroethoxy)-3-pyridyl]oxy]pyrrolidin-1-yl]isoindolin-2-yl]acetamide], the EC50 is 62 nM.

As to `CN(C)C(=O)CN1Cc2ccc(N3CC[C@@H](Oc4cnc(OCC5CC5)c(F)c4)C3=O)cc2C1=O` [Example 2-06, 2-[6-[(3R)-3-[[6-(cyclopropylmethoxy)-5-fluoro-3-pyridyl]oxy]-2-oxo-pyrrolidin-1-yl]-1-oxo-isoindolin-2-yl]-N,N-dimethyl-acetamide], the EC50 worked out at 82 nM.

Consider `Cc1cc(O[C@@H]2CCN(c3ccc4c(c3)C(=O)N(CC(=O)N(C)C)C4)C2=O)cnc1OCC1CC1` [Example 2-07, 2-[6-[(3R)-3-[[6-(cyclopropylmethoxy)-5-methyl-3-pyridyl]oxy]-2-oxo-pyrrolidin-1-yl]-1-oxo-isoindolin-2-yl]-N,N-dimethyl-acetamide], for which the EC50 turned out to be 115 nM.

On to `CN(C)C(=O)CN1Cc2ccc(N3CC[C@@H](Oc4ccc(NCC5CC5)nc4)C3=O)cc2C1=O` [Example 2-08, 2-[6-[(3R)-3-[[6-(cyclopropylmethylamino)-3-pyridyl]oxy]-2-oxo-pyrrolidin-1-yl]-1-oxo-isoindolin-2-yl]-N,N-dimethyl-acetamide], for which the EC50 amounted to 2120 nM.

For the compound `CN(C)C(=O)CN1Cc2ccc(N3CC[C@@H](Oc4ccc(F)cc4)C3=O)cc2C1=O` [Example 2-09, 2-[6-[(3R)-3-(4-fluorophenoxy)-2-oxo-pyrrolidin-1-yl]-1-oxo-isoindolin-2-yl]-N,N-dimethyl-acetamide], the EC50 was determined as 739 nM.

Turning to `CN(C)C(=O)CN1Cc2ccc(N3CC[C@@H](Oc4ccc(Cl)nc4)C3=O)cc2C1=O` [Example 2-10, 2-[6-[(3R)-3-[(6-chloro-3-pyridyl)oxy]-2-oxo-pyrrolidin-1-yl]-1-oxo-isoindolin-2-yl]-N,N-dimethyl-acetamide], the EC50 amounted to 2070 nM.

As to `CCC(=O)c1ccc(O[C@@H]2CCN(c3ccc4c(c3)C(=O)N(CC(=O)N(C)C)C4)C2=O)cc1` [Example 2-11, N,N-dimethyl-2-[1-oxo-6-[(3R)-2-oxo-3-(4-propanoylphenoxy)pyrrolidin-1-yl]isoindolin-2-yl]acetamide], the EC50 worked out at 267 nM.

Take `CCCCC(=O)c1ccc(O[C@@H]2CCN(c3ccc4c(c3)C(=O)N(CC(=O)N(C)C)C4)C2=O)cc1` [Example 2-12, N,N-dimethyl-2-[1-oxo-6-[(3R)-2-oxo-3-(4-pentanoylphenoxy)pyrrolidin-1-yl]isoindolin-2-yl]acetamide]: the EC50 was determined as 44 nM.
